According to PubChem BioAssay (NCI):
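48-hour exposure; five concentrations; linearly interpolated endpoints. TGI denotes the concentration required for complete inhibition of growth.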

Key:
Test in all cases: NCI-60 cell line screen, 48 h
[1] = system: DU-145 prostate
[2] = system: T-47D breast
[3] = system: SK-MEL-5 melanoma
[4] = system: UACC-62 melanoma
[5] = system: MALME-3M melanoma
[6] = system: UO-31 renal
[7] = system: SF-539 CNS
[8] = system: HCT-116 colon
[9] = system: SNB-19 CNS
[10] = system: BT-549 breast
[11] = system: K-562 leukemia
[12] = system: COLO 205 colon
[13] = system: OVCAR-3 ovarian
[14] = system: MDA-MB-231 breast
[15] = system: PC-3 prostate
[16] = system: HL-60(TB) leukemia
[17] = system: SF-295 CNS
[18] = system: MCF7 breast
[19] = system: HOP-62 NSCLC
[20] = system: SNB-75 CNS
[21] = system: HT29 colon
[22] = system: HOP-92 NSCLC
[23] = system: MOLT-4 leukemia
[24] = system: U251 CNS
[25] = system: HS 578T breast
[26] = system: OVCAR-8 ovarian
[27] = system: KM12 colon
[28] = system: RPMI-8226 leukemia
[29] = system: HCC-2998 colon
[30] = system: RXF 393 renal
[31] = system: MDA-N
[32] = system: SK-OV-3 ovarian
[33] = system: CCRF-CEM leukemia
[34] = system: OVCAR-4 ovarian
[35] = system: M14 melanoma
[36] = system: IGROV1 ovarian
[37] = system: A498 renal
[38] = system: SK-MEL-2 melanoma
[39] = system: SN12C renal
[40] = system: 786-0 renal
[41] = system: UACC-257 melanoma
[42] = system: SF-268 CNS
[43] = system: SK-MEL-28 melanoma
[44] = system: NCI-H226 lung
[45] = system: TK-10 renal
[46] = system: LOX IMVI melanoma
[47] = system: HCT-15 colon
[48] = system: NCI-H522 lung
[49] = system: NCI-H23 lung
[50] = system: SR leukemia
[51] = system: NCI-H460 lung
[52] = system: SW-620 colon
[53] = system: EKVX NSCLC
[54] = system: CAKI-1 renal
[55] = system: OVCAR-5 ovarian
[56] = system: MDA-MB-435
[57] = system: NCI/ADR-RES ovarian
[58] = system: ACHN renal
[59] = system: A549 NSCLC

Q: What does the source list for `Cc1ccnc2sc3ccccc3c(=O)c12`?
A: TGI [1]: > 100 µM; TGI [2]: > 100 µM; TGI [3]: 73.4 µM; TGI [4]: 63 µM; TGI [5]: > 100 µM; TGI [6]: 81.8 µM; TGI [7]: > 100 µM; TGI [8]: > 100 µM; TGI [9]: > 100 µM; TGI [10]: > 100 µM; TGI [11]: > 100 µM; TGI [12]: > 100 µM; TGI [13]: > 100 µM; TGI [14]: > 100 µM; TGI [15]: > 100 µM; TGI [16]: > 100 µM; TGI [17]: > 100 µM; TGI [18]: > 100 µM; TGI [19]: > 100 µM; TGI [20]: 63.2 µM; TGI [21]: 93.3 µM; TGI [22]: > 100 µM; TGI [23]: 79.2 µM; TGI [24]: > 100 µM; TGI [25]: 77.6 µM; TGI [26]: > 100 µM; TGI [27]: > 100 µM; TGI [28]: > 100 µM; TGI [29]: > 100 µM; TGI [30]: > 100 µM; TGI [31]: > 100 µM; TGI [32]: > 100 µM; TGI [33]: > 100 µM; TGI [34]: > 100 µM; TGI [35]: > 100 µM; TGI [36]: > 100 µM; TGI [37]: > 100 µM; TGI [38]: > 100 µM; TGI [39]: > 100 µM; TGI [40]: > 100 µM; TGI [41]: > 100 µM; TGI [42]: > 100 µM; TGI [43]: > 100 µM; TGI [44]: > 100 µM; TGI [45]: 90.6 µM; TGI [46]: > 100 µM; TGI [47]: > 100 µM; TGI [48]: 99.2 µM; TGI [49]: > 100 µM; TGI [50]: > 100 µM; TGI [51]: > 100 µM; TGI [52]: > 100 µM; TGI [53]: 94.4 µM; TGI [54]: 61.5 µM; TGI [55]: > 100 µM; TGI [56]: > 100 µM; TGI [57]: > 100 µM; TGI [58]: > 100 µM

Q: Which TGI [1] does the source give for `O=[N+]([O-])c1ccc(-[n+]2ccc3ccccc3c2)c([N+](=O)[O-])c1` here?
A: Its TGI is 27.8 µM.

Q: What about the TGI [2] of the same compound?
A: The TGI was 4.35 µM.

Q: And the TGI [3]?
A: The TGI was 6.56 µM.

Q: What about the TGI [4] of the same compound?
A: The TGI was 5.53 µM.

Q: And the TGI [5]?
A: Its TGI is 9.09 µM.

Q: And the TGI [6]?
A: Its TGI is 9.28 µM.

Q: And the TGI [7]?
A: The TGI was 12 µM.

Q: And the TGI [8]?
A: The TGI was 5.95 µM.

Q: And the TGI [9]?
A: Its TGI is 34.7 µM.

Q: What about the TGI [10] of the same compound?
A: The TGI was 13.5 µM.

Q: And the TGI [11]?
A: Its TGI is over 23.2 µM.

Q: What about the TGI [12] of the same compound?
A: The TGI was 6.29 µM.

Q: And the TGI [13]?
A: Its TGI is 6.2 µM.

Q: What about the TGI [14] of the same compound?
A: The TGI was 9.01 µM.

Q: And the TGI [59]?
A: The TGI was 34.1 µM.

Q: What about the TGI [15] of the same compound?
A: Its TGI is 13.1 µM.

Q: And the TGI [16]?
A: Its TGI is 3.71 µM.

Q: And the TGI [17]?
A: Its TGI is 28.5 µM.

Q: And the TGI [18]?
A: The TGI was 3.75 µM.

Q: What about the TGI [19] of the same compound?
A: The TGI was 20 µM.

Q: What about the TGI [20] of the same compound?
A: Its TGI is 8.74 µM.

Q: And the TGI [21]?
A: Its TGI is 6.5 µM.

Q: And the TGI [22]?
A: Its TGI is 5.29 µM.

Q: What about the TGI [23] of the same compound?
A: The TGI was over 21 µM.

Q: What about the TGI [24] of the same compound?
A: Its TGI is 17.7 µM.

Q: And the TGI [25]?
A: The TGI was 49.6 µM.

Q: What about the TGI [26] of the same compound?
A: The TGI was 6.74 µM.

Q: What about the TGI [27] of the same compound?
A: Its TGI is 27.7 µM.

Q: And the TGI [28]?
A: The TGI was 6.68 µM.

Q: What about the TGI [29] of the same compound?
A: The TGI was 26.7 µM.

Q: And the TGI [30]?
A: Its TGI is 3.83 µM.

Q: And the TGI [31]?
A: Its TGI is 6 µM.

Q: What about the TGI [32] of the same compound?
A: The TGI was 27.1 µM.

Q: What about the TGI [33] of the same compound?
A: The TGI was 5.38 µM.

Q: And the TGI [34]?
A: The TGI was 3.04 µM.

Q: What about the TGI [35] of the same compound?
A: The TGI was 8.69 µM.

Q: And the TGI [36]?
A: Its TGI is 8.61 µM.

Q: And the TGI [37]?
A: Its TGI is 28 µM.

Q: What about the TGI [38] of the same compound?
A: The TGI was 25.2 µM.

Q: What about the TGI [39] of the same compound?
A: The TGI was 6.82 µM.

Q: And the TGI [40]?
A: Its TGI is 3.24 µM.

Q: And the TGI [41]?
A: Its TGI is 4.08 µM.

Q: And the TGI [42]?
A: The TGI was 11.9 µM.

Q: What about the TGI [43] of the same compound?
A: Its TGI is 8.25 µM.

Q: What about the TGI [44] of the same compound?
A: The TGI was 43.6 µM.

Q: What about the TGI [45] of the same compound?
A: Its TGI is 3.52 µM.

Q: And the TGI [46]?
A: The TGI was 3.67 µM.

Q: What about the TGI [47] of the same compound?
A: Its TGI is 3.65 µM.

Q: And the TGI [48]?
A: The TGI was 3.74 µM.

Q: What about the TGI [49] of the same compound?
A: Its TGI is 6.03 µM.

Q: What about the TGI [50] of the same compound?
A: Its TGI is over 100 µM.

Q: And the TGI [51]?
A: Its TGI is 30.1 µM.

Q: And the TGI [53]?
A: Its TGI is 19.4 µM.

Q: What about the TGI [54] of the same compound?
A: Its TGI is 8.74 µM.

Q: What about the TGI [55] of the same compound?
A: Its TGI is 23.9 µM.

Q: And the TGI [56]?
A: The TGI was 7.07 µM.

Q: And the TGI [57]?
A: Its TGI is 11.9 µM.

Q: What about the TGI [58] of the same compound?
A: Its TGI is 4.44 µM.
